The values that follow come from patent US6521635B1, “Inhibition of MXR transport by acridine derivatives” (priority 2000, dated 2003).

The data set deals with T1, MXR (S1-M1-80 cells) (Homo sapiens, UniProt Q9UNQ0, R482G).
T1 construct: express high levels of a mitoxantrone transporter (Miyake et al. (1999) Cancer Res.59: 8-13); endogenous in cells; host or cells: S1-M1-80 (mitoxantrone-selected subline of S1 colon carcinoma cells)
T1 sequence (Q9UNQ0 1-655 R482G): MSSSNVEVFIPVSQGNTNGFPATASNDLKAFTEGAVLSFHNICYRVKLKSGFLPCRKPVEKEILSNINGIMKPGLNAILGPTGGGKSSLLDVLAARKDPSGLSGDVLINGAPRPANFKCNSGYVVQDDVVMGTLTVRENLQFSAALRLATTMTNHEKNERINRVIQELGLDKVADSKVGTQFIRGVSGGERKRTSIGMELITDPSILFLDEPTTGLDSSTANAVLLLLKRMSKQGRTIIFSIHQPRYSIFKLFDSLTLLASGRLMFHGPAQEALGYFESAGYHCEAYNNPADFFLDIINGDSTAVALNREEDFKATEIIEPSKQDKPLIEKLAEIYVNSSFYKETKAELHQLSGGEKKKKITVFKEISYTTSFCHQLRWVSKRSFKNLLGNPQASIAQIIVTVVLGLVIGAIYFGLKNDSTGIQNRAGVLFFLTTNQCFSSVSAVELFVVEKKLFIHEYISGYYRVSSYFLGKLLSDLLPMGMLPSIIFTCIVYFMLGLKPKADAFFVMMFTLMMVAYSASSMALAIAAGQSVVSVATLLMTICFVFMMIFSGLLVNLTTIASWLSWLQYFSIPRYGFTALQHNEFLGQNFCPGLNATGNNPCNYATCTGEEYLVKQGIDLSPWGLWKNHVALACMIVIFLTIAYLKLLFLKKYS
Description: Rhodamine efflux assay (flow cytometry). Particulars: S1-M1-80 cells. It is filed as cell-based. On the procedure:
To provide confirmation, rhodamine efflux assays were performed. […] The results are depicted in FIG. 2.

In the case of `COc1cc2c(cc1OC)CN(CCc1ccc(NC(=O)c3cccc4c(=O)c5cccc(OC)c5[nH]c34)cc1)CC2` [GF120918], the “concentration at which an effect on rhodamine efflux was observed” value stood at 1000 nM.
